Experimental data: patent publication US20230302014A1, “USES OF GLUCOCORTICOID RECEPTOR (GR) ANTAGONIST AND ANDROGEN RECEPTOR (AR) DEGRADER COMBINATIONS” (ORIC Pharmaceuticals, Inc., priority 2020, published 2023)

Legend:
Assay type in all cases: cell-based, Human
AR protein = assay: Western blot of AR protein after dose-dependent AR degrader treatment; settings: LNCaP and CWR22PC cells, 3 days, increasing doses 3-1000 nM
Method: Cell pellets were washed with PBS and lysed in RIPA buffer (VWR#AAJ63306-AK) supplemented with proteasome inhibitor cocktails (VWR #AAJ65789-LQ). Resuspended cells were briefly sonicated for ~30 seconds using a probe sonicator and incubated on ice for 40 minutes, followed with centrifugation at 12,000 rpm for 15 minutes at 4° C. to collect the supernatant. Protein concentration was quantitated using Quick Start™ Bradford Protein Assay Kit (Bio-Rad #5000201).
Proteins were transferred to nitrocellulose membranes using iBlot 2 Dry Blotting System (ThermoFisher#IB210021) at 20 V for 10 minutes.

AR mRNA = assay: RT-qPCR of AR mRNA after dose-dependent AR degrader treatment; settings: LNCaP and CWR22PC cells, 3 days, increasing doses 3-1000 nM
Method: LNCaP and CWR22PC cells were plated in seven 15-cm dishes (Corning#353025) at a density of 5 million cells per dish in RPMI-1640 media supplemented with 10% charcoal-stripped serum (CSS; OmegaScientific#FB4). After 24 hours, the cells were treated with 0, 3, 10, 30, 100, 300 and 1000 nM of ARD1 or ARD2 and incubated at 37° C. for 3 days. The cells were then trypsinized (Corning#25-053-CI) and harvested for transcript (RT-qPCR) and protein (western blot) analysis.
(§1) Adherent cells or cell pellets harvested for mRNA analysis were first washed once with PBS and then resuspended in 600 µL of RLT lysis buffer (Qiagen Inc.) supplemented with 1% of betamercaptoethanol. RNA was extracted by QIAcube using the RNeasy Mini QIAcube kit (Qiagen#74116) according to manufacturer’s instructions. The extracted RNA samples were then quantified using a Nanodrop 8000 Spectrophotometer. RT-qPCR reactions were set up in triplicate using 3 µL of 3 ng/ µL of RNA in 7 µL of pre-mixed SensiFAST™ SYBR No-ROX One-Step Kit reagents (BIOLINE# BIO-98005). The RT-qPCR reactions were run on a Bio-Rad CFX384 Real-Time PCR System and data was plotted with GraphPad Prism 8 software.
LNCaP and CWR22PC cells were plated in seven 10-cm dishes (Corning#353003) at a density of 2 million cells per dish in RPMI-1640 media supplemented with 10% charcoal-stripped serum (CSS; OmegaScientific#FB4). […]

[1] = test system: AR target genes KLK3, KLK4, NKX3.1, FKBP5; assay: Target gene assay (RT-qPCR, R1881-induced AR target genes); settings: 100 pM R1881; for AR target gene FKBP5 induced by R1881 / AR target gene KLK3 induced by R1881 / AR target gene KLK4 induced by R1881 / AR target gene NKX3.1 induced by R1881: 24 hours post treatment
Method: (§2) 10,000 LNCaP and CWR22PC cells per well were plated in triplicate in poly-lysine coated 96-well plates (ThermoFisher#152039) in 200 µL of RPMI-1640 media supplemented with 10% charcoal-stripped serum. 24 hours later, cells were treated with 100 pM of R1881 and 8-point dilution for enzalutamide, ARD1 or ARD2 with concentrations ranging from 1 µM to 0.46 nM. After incubation at 37° C. for 24 hours, media was removed, and cells were washed once with PBS. 55 µL per well of iScript RT-qPCR sample preparation reagent (Bio-Rad #1708898) was added and incubated for 2 minutes before lysate was collected for mRNA analysis. RT-qPCR was set up in triplicate using 3 µL of lysate plus 7 µL of pre-mixed SensiFAST™ SYBR No-ROX One-Step Kit reagents (BIOLINE, Cat# BIO-98005) per reaction. The RT-qPCR reactions were run on a Bio-Rad CFX384 Real-Time PCR System and data was plotted with GraphPad Prism 8 software.
as §2, with “15,000” for “10,000”, “24 hours later, cells were treated with 100 pM of R1881 and 8-point dilution for enzalutamide, ARD1 or ARD2 with concentrations ranging from 1 µM to 0.46 nM.” left out, “75” for “55”

[2] = test system: AR and/or GR target genes KLK4, KLF9, FKBP5, PER1, SGK1; assay: Biomarker analysis by RT-qPCR, 48 hours; settings: CWR22PC and 22Rv1 cells, 0.1 nM R1881, 1 µM degrader
Method: CWR22PC and 22RV1 cells were seeded at a density of 2 × 10^5 cells/well in 6-well plates in 2 mL of RPMI-1640 media supplemented with 10% charcoal-stripped serum (CSS). Cells were treated with 100 pM R1881, 30 nM dexamethasone, 0.5 µM compound 1, 1 µM of ARD1 or ARD2, or combinations thereof as indicated and maintained at 37° C. 48 hours later, media was removed, and cells were washed once with PBS and then harvested for mRNA analysis.
as §1
CWR22PC and 22Rv1 cells were seeded at a density of 2 × 10^5 cells/well in 6-well plates in 2 mL of RPMI-1640 media supplemented with 10% charcoal-stripped serum (CSS). […] 48 hours later, media was removed, and cells were washed once with PBS and then harvested for mRNA analysis.

SMILES: N#Cc1ccc(O[C@H]2CC[C@H](NC(=O)c3ccc(N4CCC(CN5CCN(c6cc7c(cc6F)C(=O)N(C6CCC(=O)NC6=O)C7=O)CC5)CC4)nn3)CC2)cc1Cl (stereo partly drawn) [ARV-110, N-[trans-4-(3-chloro-4-cyanophenoxy)cyclohexyl]-6-[4-[[4-[2-(2,6-dioxo-3-piperidinyl)-6-fluoro-2,3-dihydro-1,3-dioxo-1H-isoindol-5-yl]-1-piperazinyl]methyl]-1-piperidinyl]-3-pyridazinecarboxamide]
- AR protein levels (AR protein): degrades AR protein in a dose-dependent manner
- AR transcript levels (AR mRNA): minimally impacting
- AR target gene FKBP5 induced by R1881 ([1]; CWR22PC cells): inhibit
- AR target gene KLK3 induced by R1881 ([1]; CWR22PC cells): inhibit
- AR target gene KLK4 induced by R1881 ([1]; CWR22PC cells): inhibit
- AR target gene NKX3.1 induced by R1881 ([1]; CWR22PC cells): inhibit
- expression of AR target genes including KLK3, KLK4, NKX3.1, and FKBP5 ([1]; LNCaP and CWR22PC cells, 24 hours, 1 µM to 0.46 nM, potency compared with enzalutamide): in a dose-dependent manner with greater potency than AR antagonist enzalutamide
- AR target gene FKBP5 induced by R1881 ([1]; LNCaP cells): inhibit
- AR target gene KLK3 induced by R1881 ([1]; LNCaP cells): inhibit
- AR target gene KLK4 induced by R1881 ([1]; LNCaP cells): inhibit
- AR target gene NKX3.1 induced by R1881 ([1]; LNCaP cells): inhibit
- expression induction by R1881 of AR target FKBP5 [2]: completely inhibited
- expression induction by R1881 of AR target KLK4 [2]: completely inhibited
